The values below are quoted from earlier work in patent US20210137911A1, “NOVEL CHRONOTHERAPY BASED ON CIRCADIAN RHYTHMS” (THE TRUSTEES OF THE UNIVERSITY OF PENNSYLVANIA, priority 2014, published 2021).

As usually defined, the half-life is the time needed for the level to fall by half in the phase considered.

Like-named read-outs stand apart in the source and are kept apart here.

The conditions of this series: cited from earlier work; for half-life: see Table 1.
[1] abbreviates: half-life of top selling therapeutic compounds (Table 1).
Setting [2] is: half-life of therapeutic compound as listed in Table 1.

`CCCC1O[C@@H]2C[C@H]3[C@@H]4CCC5=CC(=O)C=C[C@]5(C)[C@H]4[C@@H](O)C[C@]3(C)[C@]2(C(=O)CO)O1` (stereo partly drawn) [Budesonide]: the “½ Life” value under setting [1] is 2 h. As for `CCOC(=O)C1=C[C@@H](OC(CC)CC)[C@H](NC(C)=O)[C@@H](N)C1` [Oseltamivir], the “½ Life” value under setting [2] was 1 h. For `CO[C@H]1C(=O)[C@]2(C)[C@@H](OC)C[C@H]3OC[C@@]3(OC(C)=O)[C@H]2[C@H](OC(=O)c2ccccc2)[C@]2(O)C[C@H](OC(=O)[C@H](O)[C@@H](NC(=O)OC(C)(C)C)c3ccccc3)C(C)=C1C2(C)C` [Cabazitaxel], the “½ Life” value under setting [1] is 4 h.

As for `COC(=O)Nc1nc2ccc(C(=O)c3ccccc3)cc2[nH]1` [Mebendazole], the “½ Life” value under setting [2] is 2.5 h.

On to `N[C@H](C(=O)O)[C@H](O)c1ccc(O)c(O)c1` [Droxidopa], for which the “½ Life” value under setting [1] is 2 h.

As for `O=c1[nH]cc(F)c(=O)[nH]1` [Fluorouracil], the “½ Life” value under setting [1] is 0.166 h. With `C[C@H]1C[C@H]2[C@@H]3CCC4=CC(=O)C=C[C@]4(C)[C@@]3(F)[C@@H](O)C[C@]2(C)[C@@]1(O)C(=O)CO` [Betamethasone], under setting [1], the “½ Life” value was 5.6 h. `CC(C)c1cccc(C(C)C)c1O` [Propofol]: the “½ Life” value (in vivo) is 1 h.

Consider `CCc1cc(C(N)=S)ccn1` [Ethionamide], for which the “½ Life” value under setting [1] is 2 h. Regarding `COc1ccccc1Oc1c(NS(=O)(=O)c2ccc(C(C)(C)C)cc2)nc(-c2ncccn2)nc1OCCO` [Bosentan], the “½ Life” value under setting [1] is 5 h. `NC(N)=NCCC[C@@H](N)C(=O)N[C@@H](CCCN=C(N)N)C(=O)N1CCC[C@H]1C(=O)N1C[C@H](O)C[C@H]1C(=O)NCC(=O)N[C@@H](Cc1cccs1)C(=O)N[C@@H](CO)C(=O)N1Cc2ccccc2C[C@@H]1C(=O)N1[C@H](C(=O)N[C@@H](CCCN=C(N)N)C(=O)O)C[C@@H]2CCCC[C@@H]21` [Icatibant]: the “½ Life” value (in vivo) is 1.4 h. For the compound `CCCCCc1cc(O)c2c(c1)OC(C)(C)[C@@H]1CCC(C)=C[C@@H]21` [Dronabinol], under “in vivo”, the “½ Life” value was 4 h. On to `CC(=O)Oc1ccc2c3c1O[C@H]1[C@@H](OC(C)=O)C=C[C@H]4[C@@H](C2)N(C)CC[C@@]341` [Heroin], for which the “½ Life” value under setting [2] is 0.166 h. Regarding `Cn1c(=O)c2c(ncn2CC(O)CO)n(C)c1=O` (stereo not drawn) [Dyphylline], the “½ Life” value under setting [1] was 2 h. Regarding `COC(=O)[C@H](c1ccccc1)[C@H]1CCCCN1` [Dexmethylphenidate], the “½ Life” value (in vivo) is 2 h. Take `CCCC(C)C1(CC)C(=O)NC(=S)NC1=O` (stereo not drawn) [Thiopental]: the “½ Life” value (in vivo) is 3 h. For `O=C(O)c1cccnc1` [niacin, reference compound], the half-life is 0.33 h. Moreover, the “½ Life” value under setting [2] was 0.33 h. For `Cc1ccc(C(=O)c2ccc(CC(=O)O)n2C)cc1` [Tolmetin], under “in vivo”, the “½ Life” value was 2 h. On to `COCCOc1cnc(NS(=O)(=O)c2ccccc2)nc1` [Glycodiazine], for which the “½ Life” value under setting [2] is 4 h.

As for Tinzaparin, the “½ Life” value (in vivo) was 1.366 h.

As to `CC(C)[C@H]1CC[C@H](C(=O)N[C@H](Cc2ccccc2)C(=O)O)CC1` [Nateglinide], the “½ Life” value under setting [2] was 1.5 h. Consider `O=C(CCCN1CC=C(n2c(=O)[nH]c3ccccc32)CC1)c1ccc(F)cc1` [Droperidol], for which the “½ Life” value under setting [1] was 1.4 h. Turning to `CCc1ccc(CCOc2ccc(CC3SC(=O)NC3=O)cc2)nc1` (stereo not drawn) [Pioglitazone], the “½ Life” value under setting [2] is 3 h. In the case of `CC[C@]1(O)C[C@H]2CN(CCc3c([nH]c4ccccc34)[C@@](C(=O)OC)(c3cc4c(cc3OC)N(C=O)[C@H]3[C@@](O)(C(=O)OC)[C@H](OC(C)=O)[C@]5(CC)C=CCN6CC[C@]43[C@@H]65)C2)C1` [Vincristine], the “½ Life” value (in vivo) is 5 h. `CCCCNc1cc(C(=O)O)cc(S(N)(=O)=O)c1Oc1ccccc1` [Bumetanide]: the “½ Life” value under setting [1] was 1 h. On to `CCOC(=O)C1(c2ccccc2)CCN(C)CC1` [Pethidine], for which the “½ Life” value (in vivo) is 1 h. As to `COCc1c(C(C)C)nc(C(C)C)c(/C=C/[C@@H](O)C[C@@H](O)CC(=O)O)c1-c1ccc(F)cc1` [Cerivastatin, reference compound], the half-life result is recorded as “less than three”. The “½ Life” value under setting [1] is 2 h. Regarding `Nc1ccncc1` [Dalfampridine], the “½ Life” value (in vivo) was 3.5 h. Consider `C=CCN1CC[C@]23CCCC[C@H]2[C@H]1Cc1ccc(O)cc13` [Levallorphan], for which, under setting [2], the “½ Life” value is 1 h. Take `COc1cc([C@@H]2c3cc4c(cc3[C@H](O)[C@H]3COC(=O)[C@H]23)OCO4)cc(OC)c1OC` [Podofilox]: the “½ Life” value under setting [2] is 1 h. As for `CCCCCCCCCCC[C@@H](C[C@@H]1OC(=O)[C@H]1CCCCCC)OC(=O)[C@H](CC(C)C)NC=O` [Orlistat], the “½ Life” value under setting [2] is 1 h.

Turning to `Nc1nc(Cl)nc2c1ncn2[C@@H]1O[C@H](CO)[C@@H](O)[C@@H]1F` [Clofarabine], under setting [1], the “½ Life” value is 5.2 h. Turning to `CN(N=O)C(=O)N[C@@H](C=O)[C@@H](O)[C@H](O)[C@H](O)CO` [Streptozocin], the “½ Life” value (in vivo) was 0.0833 h. For `NCC1(CC(=O)O)CCCCC1` [Gabapentin], under “in vivo”, the “½ Life” value was 5 h.

Take `CCCC(C)C1(CC)C(=O)NC(=O)NC1=O` (stereo not drawn) [Pentobarbital]: the “½ Life” value (in vivo) is 5 h. `CN1C[C@H](C(=O)N[C@]2(C)O[C@@]3(O)[C@@H]4CCCN4C(=O)[C@H](Cc4ccccc4)N3C2=O)C=C2c3cccc4[nH]cc(c34)C[C@H]21` [Ergotamine]: the “½ Life” value (in vivo) was 2 h. For the compound `C#CC1(OC(N)=O)CCCCC1` [Ethinamate], the “½ Life” value (in vivo) was 2.5 h. Turning to `CCC1(c2ccccc2)C(=O)NCNC1=O` [Primidone], under setting [2], the “½ Life” value was 3 h. In the case of `NCCCCCC(=O)O` [Aminocaproic Acid], the “½ Life” value under setting [1] was 2 h. For the compound `O=C1CN2Cc3c(ccc(Cl)c3Cl)N=C2N1` [Anagrelide], under setting [1], the “½ Life” value is 0.5 h.

With `CC(C)OC(=O)CCC/C=C\C[C@@H]1[C@@H](CC[C@@H](O)CCc2ccccc2)[C@H](O)C[C@@H]1O` [Latanoprost], the “½ Life” value under setting [2] is 0.283 h.

`O=C(O[C@H]1C[N+]2(CCCOc3ccccc3)CCC1CC2)C(O)(c1cccs1)c1cccs1` [Aclidinium]: the “½ Life” value under setting [1] is 2.4 h. On to Nesiritide, for which, under “in vivo”, the “½ Life” value is 0.3 h.

Consider `C[C@@H]1CC(=O)NN=C1c1ccc(NN=C(C#N)C#N)cc1` [Levosimendan], for which the “½ Life” value under setting [2] was 1 h.

Turning to `NNc1nncc2ccccc12` [Hydralazine], under setting [2], the “½ Life” value is 3 h. Turning to `CCOc1ccc2nc(S(N)(=O)=O)sc2c1` [Ethoxzolamide], under setting [1], the “½ Life” value was 2.5 h. Turning to `CCCCc1nc(Cl)c(CO)n1Cc1ccc(-c2ccccc2-c2nn[nH]n2)cc1` [Losartan, reference compound], the “½ Life” value under setting [2] is 1 h. Take `CCOc1cc(N)c([N+](=O)[O-])cc1C(=O)NC1CCN(CC2CC=CCC2)CC1` (stereo not drawn) [Cinitapride]: the “½ Life” value under setting [1] was 3 h. As to `O=C1CCC(N2C(=O)c3ccccc3C2=O)C(=O)N1` (stereo not drawn) [Thalidomide], the “½ Life” value (in vivo) was 5 h. As for `CC(=O)Nc1nnc(S(N)(=O)=O)s1` [Acetazolamide], under setting [1], the “½ Life” value is 3 h. For the compound `Nc1ccn([C@@H]2O[C@H](CO)[C@@H](O)C2(F)F)c(=O)n1` [Gemcitabine], the “½ Life” value under setting [2] is 0.7 h. On to `C=CCN1CC[C@]23c4c5ccc(O)c4O[C@H]2C(=O)CC[C@@]3(O)[C@H]1C5` [Naloxone], for which, under setting [2], the “½ Life” value was 0.5 h. As to `Clc1ccccc1C(c1ccccc1)(c1ccccc1)n1ccnc1` [Clotrimazole], the “½ Life” value under setting [1] was 2 h.

With `CCNC(=O)CCC/C=C\C[C@@H]1[C@@H](/C=C/[C@@H](O)CCc2ccccc2)[C@H](O)C[C@@H]1O` [Bimatoprost], the “½ Life” value under setting [1] was 0.75 h.

Regarding `NS(=O)(=O)c1cc2c(cc1Cl)NCNS2(=O)=O` [Hydrocholorthiazide, reference compound], the half-life was 5.6 h. Further, the “½ Life” value (in vivo) was 5.6 h. Regarding `CC(C)CC(N(C)C)C1(c2ccc(Cl)cc2)CCC1` (stereo not drawn) [Sibutramine], the “½ Life” value (in vivo) was 1.1 h. For the compound `COc1cc2c(c(OC)c1OC)-c1ccc(OC)c(=O)cc1[C@@H](NC(C)=O)CC2` [Colchicine], the “½ Life” value under setting [1] is 1 h. As for `COc1cc(NC(C)CCCN)c2ncccc2c1` (stereo not drawn) [Primaquine], the “½ Life” value under setting [2] is 3.7 h.

For `O=c1n(CCCN2CCN(c3cccc(Cl)c3)CC2)nc2ccccn12` [Trazodone], the “½ Life” value (in vivo) is 1 h. In the case of `CN(C)C(=O)Oc1ccc[n+](C)c1` [Pyridostigmine], the “½ Life” value (in vivo) was 3 h. With Heparin, the “½ Life” value (in vivo) was 1.5 h. Turning to Anakinra, under “in vivo”, the “½ Life” value was 4 h. Consider `O=P(O)(O)C(O)(Cc1cccnc1)P(=O)(O)O` [Risedronate], for which the “½ Life” value (in vivo) was 1.5 h. Turning to `Nc1nc(N)c2nc(-c3ccccc3)c(N)nc2n1` [Triamterene], the “½ Life” value (in vivo) was 4.25 h.

For the compound `CC(=O)Nc1ccc(O)cc1` [Acetaminophen], the “½ Life” value under setting [1] was 1 h. For `Nc1c2c(nc3ccccc13)CCCC2` [Tacrine], the “½ Life” value (in vivo) is 2 h. Regarding `O=[N+]([O-])O[C@H]1CO[C@H]2[C@@H]1OC[C@H]2O[N+](=O)[O-]` [Isosorbide Dinitrate], the “½ Life” value under setting [2] is 1 h.

Regarding `Nc1cccc2c1CN(C1CCC(=O)NC1=O)C2=O` (stereo not drawn) [Lenalidomide], the “½ Life” value under setting [2] was 3 h.

As for Mecasermin, the “½ Life” value (in vivo) was 2 h.

On to `C#CCN[C@@H]1CCc2ccccc21` [Rasagiline], for which the “½ Life” value (in vivo) is 3 h. In the case of `COC(=O)C(c1ccccc1)C1CCCCN1` (stereo not drawn) [Methylphenidate], the “½ Life” value (in vivo) was 3 h. Consider `Cc1ccc(=O)n(-c2ccccc2)c1` [Pirfenidone], for which, under setting [2], the “½ Life” value was 2 h. On to `Nc1nc(Cl)nc2c1ncn2[C@H]1C[C@H](O)[C@@H](CO)O1` [Cladribine], for which, under setting [1], the “½ Life” value was 5.4 h. Turning to Drotrecogin alfa, under “in vivo”, the “½ Life” value is 5.5 h.

With `CN(CCOc1ccc(CC2SC(=O)NC2=O)cc1)c1ccccn1` (stereo not drawn) [Rosiglitazone], the “½ Life” value (in vivo) was 3 h.
